Assays:
Hepatitis B virus [1] = test: Antiviral activity against Hepatitis B virus infected human HepG2.2.15 cells assessed as HBsAg secretion at 100 […] after 9 days by ELISA; format: functional; conditions: HepG2 2.2.15, 216 h
Hepatitis B virus [2] = test: Antiviral activity against Hepatitis B virus infected human HepG2.2.15 cells assessed as HBsAg secretion at 25 […] after 9 days by ELISA; format: functional; conditions: HepG2 2.2.15, 216 h
Hepatitis B virus [3] = test: Antiviral activity against Hepatitis B virus infected human HepG2.2.15 cells assessed as HBsAg secretion at 50 […] after 9 days by ELISA; format: functional; conditions: HepG2 2.2.15, 216 h
Hepatitis B virus [4] = test: Antiviral activity against Hepatitis B virus infected human HepG2.2.15 cells assessed as HBeAg secretion at 100 […] after 9 days by ELISA; format: functional; conditions: HepG2 2.2.15, 216 h
Hepatitis B virus [5] = test: Antiviral activity against Hepatitis B virus infected human HepG2.2.15 cells assessed as HBeAg secretion at 50 […] after 9 days by ELISA; format: functional; conditions: HepG2 2.2.15, 216 h
Hepatitis B virus [6] = test: Antiviral activity against Hepatitis B virus infected human HepG2.2.15 cells assessed as HBeAg secretion at 25 […] after 9 days by ELISA; format: functional; conditions: HepG2 2.2.15, 216 h
[7] = Cytotoxicity against human HepG2(2.2.15) cells at 200 ug/mL by MTT assay; format: cell-based; conditions: read-out: GI
Hepatitis B virus [8] = test: Antiviral activity against Hepatitis B virus infected human HepG2.2.15 cells assessed as HBsAg secretion at 200 […] after 9 days by ELISA; format: functional; conditions: HepG2 2.2.15, 216 h
Hepatitis B virus [9] = test: Antiviral activity against Hepatitis B virus infected human HepG2.2.15 cells assessed as HBeAg secretion at 200 […] after 9 days by ELISA; format: functional; conditions: HepG2 2.2.15, 216 h
[10] = Cytotoxicity against human HepG2(2.2.15) cells at 100 ug/mL by MTT assay; format: cell-based; conditions: read-out: GI
[11] = Cytotoxicity against human HepG2(2.2.15) cells at 50 ug/mL by MTT assay; format: cell-based; conditions: read-out: GI

Question: Which results are given for `C/C=C(\C)C(=O)O[C@H]1c2cc(OC)c(OC)c(OC)c2-c2c(cc(O)c(OC)c2O)C[C@H](C)[C@@]1(C)O` [SCHISANWILSONIN D]?
Answer: inhibition in vivo at 0.1 mg/kg (Hepatitis B virus [1]): 28.8%; inhibition in vivo at 0.025 mg/kg (Hepatitis B virus [2]): 12.5%; inhibition in vivo at 0.05 mg/kg (Hepatitis B virus [3]): 19.5%; inhibition in vivo at 0.1 mg/kg (Hepatitis B virus [4]): 21.6%; inhibition in vivo at 0.05 mg/kg (Hepatitis B virus [5]): 16.5%; inhibition in vivo at 0.025 mg/kg (Hepatitis B virus [6]): 6.2%; inhibition at 200 ug/mL [7]: ≥ 25%

Question: What does the source list for `COc1cc2c(c(OC)c1OC)-c1c(cc3c(c1O)OCO3)C[C@H](C)[C@@](C)(O)[C@H]2OC(C)=O` [SCHISANWILSONIN F]?
Answer: inhibition in vivo at 0.1 mg/kg (Hepatitis B virus [1]): 0%; inhibition in vivo at 0.025 mg/kg (Hepatitis B virus [2]): 0%; inhibition in vivo at 0.05 mg/kg (Hepatitis B virus [3]): 0%; inhibition in vivo at 0.1 mg/kg (Hepatitis B virus [4]): 9.3%; inhibition in vivo at 0.05 mg/kg (Hepatitis B virus [5]): 6.7%; inhibition in vivo at 0.025 mg/kg (Hepatitis B virus [6]): 5.5%; inhibition at 200 ug/mL [7]: ≥ 25%

Question: Which results are given for `COc1cc2c(c(O)c1OC)-c1c(cc(OC)c(OC)c1OC)C[C@](C)(O)[C@@H](C)C2` [GOMISIN H]?
Answer: inhibition in vivo at 0.2 mg/kg (Hepatitis B virus [8]): 11.6%; inhibition in vivo at 0.1 mg/kg (Hepatitis B virus [1]): 3.7%; inhibition in vivo at 0.025 mg/kg (Hepatitis B virus [2]): 0%; inhibition in vivo at 0.05 mg/kg (Hepatitis B virus [3]): 0%; inhibition in vivo at 0.1 mg/kg (Hepatitis B virus [4]): 0%; inhibition in vivo at 0.2 mg/kg (Hepatitis B virus [9]): 1.6%; inhibition in vivo at 0.05 mg/kg (Hepatitis B virus [5]): 0%; inhibition in vivo at 0.025 mg/kg (Hepatitis B virus [6]): 0%

Question: With `COc1cc2c(c(OC)c1OC)-c1c(cc(OC)c(OC)c1OC)C[C@H](C)[C@H](C)C2` [SCHISANDRIN A] as the compound, how does the inhibition in vivo at 0.2 mg/kg (Hepatitis B virus [8]) read?
Answer: 50.3%

Question: What about the inhibition in vivo at 0.1 mg/kg (Hepatitis B virus [1]) of the same compound?
Answer: 30.9%

Question: And the inhibition in vivo at 0.025 mg/kg (Hepatitis B virus [2])?
Answer: 0%

Question: And the inhibition in vivo at 0.05 mg/kg (Hepatitis B virus [3])?
Answer: 8.8%

Question: And the inhibition in vivo at 0.1 mg/kg (Hepatitis B virus [4])?
Answer: 11.9%

Question: And the inhibition in vivo at 0.2 mg/kg (Hepatitis B virus [9])?
Answer: 15.9%

Question: And the inhibition in vivo at 0.05 mg/kg (Hepatitis B virus [5])?
Answer: 0%

Question: What about the inhibition in vivo at 0.025 mg/kg (Hepatitis B virus [6]) of the same compound?
Answer: 0%

Question: Which results are given for `COc1cc2c(c(OC)c1OC)-c1c(cc3c(c1O)OCO3)C[C@H](C)[C@@](C)(O)[C@H]2OC(=O)c1ccccc1` [SCHISANWILSONIN C]?
Answer: inhibition in vivo at 0.025 mg/kg (Hepatitis B virus [2]): 0%; inhibition in vivo at 0.05 mg/kg (Hepatitis B virus [3]): 0%; inhibition in vivo at 0.05 mg/kg (Hepatitis B virus [5]): 11.7%; inhibition in vivo at 0.025 mg/kg (Hepatitis B virus [6]): 11.6%; inhibition at 200 ug/mL [7]: ≥ 25%; inhibition at 100 ug/mL [10]: ≥ 25%

Question: What does the source list for `COc1cc2c(c(OC)c1OC)-c1c(cc3c(c1O)OCO3)C[C@H](C)[C@@](C)(O)[C@H]2OC(=O)C(C)C` [SCHISANWILSONIN E]?
Answer: inhibition in vivo at 0.1 mg/kg (Hepatitis B virus [1]): 0%; inhibition in vivo at 0.025 mg/kg (Hepatitis B virus [2]): 0%; inhibition in vivo at 0.05 mg/kg (Hepatitis B virus [3]): 0%; inhibition in vivo at 0.1 mg/kg (Hepatitis B virus [4]): 2%; inhibition in vivo at 0.05 mg/kg (Hepatitis B virus [5]): 0%; inhibition in vivo at 0.025 mg/kg (Hepatitis B virus [6]): 0%; inhibition at 200 ug/mL [7]: ≥ 25%

Question: Which inhibition in vivo at 0.2 mg/kg (Hepatitis B virus [8]) does the source give for `Nc1ccn([C@@H]2CS[C@H](CO)O2)c(=O)n1` [LAMIVUDINE] here?
Answer: 28.6%

Question: What about the inhibition in vivo at 0.2 mg/kg (Hepatitis B virus [9]) of the same compound?
Answer: 34.5%

Question: With `COc1cc2c(c(OC)c1OC)-c1c(cc(O)c(OC)c1O)C[C@H](C)[C@@](C)(O)[C@H]2OC(=O)c1ccccc1` [SCHISANWILSONIN G] as the compound, how does the inhibition in vivo at 0.2 mg/kg (Hepatitis B virus [8]) read?
Answer: 0%

Question: And the inhibition in vivo at 0.1 mg/kg (Hepatitis B virus [1])?
Answer: 0%

Question: What about the inhibition in vivo at 0.025 mg/kg (Hepatitis B virus [2]) of the same compound?
Answer: 0%

Question: And the inhibition in vivo at 0.05 mg/kg (Hepatitis B virus [3])?
Answer: 0%

Question: And the inhibition in vivo at 0.1 mg/kg (Hepatitis B virus [4])?
Answer: 3.4%

Question: And the inhibition in vivo at 0.2 mg/kg (Hepatitis B virus [9])?
Answer: 5.6%

Question: What about the inhibition in vivo at 0.05 mg/kg (Hepatitis B virus [5]) of the same compound?
Answer: 1.6%

Question: And the inhibition in vivo at 0.025 mg/kg (Hepatitis B virus [6])?
Answer: 0%

Question: Which inhibition in vivo at 0.1 mg/kg (Hepatitis B virus [1]) does the source give for `C/C=C(\C)C(=O)O[C@H]1c2cc(OC)c(OC)c(OC)c2-c2c(cc3c(c2O)OCO3)C[C@H](C)[C@@]1(C)O` [SCHISANWILSONIN B] here?
Answer: 7.4%

Question: And the inhibition in vivo at 0.025 mg/kg (Hepatitis B virus [2])?
Answer: 0%

Question: What about the inhibition in vivo at 0.05 mg/kg (Hepatitis B virus [3]) of the same compound?
Answer: 0%

Question: And the inhibition in vivo at 0.1 mg/kg (Hepatitis B virus [4])?
Answer: 18.1%

Question: What about the inhibition in vivo at 0.05 mg/kg (Hepatitis B virus [5]) of the same compound?
Answer: 9.2%

Question: What about the inhibition in vivo at 0.025 mg/kg (Hepatitis B virus [6]) of the same compound?
Answer: 0.6%

Question: And the inhibition at 200 ug/mL [7]?
Answer: ≥ 25%

Question: What does the source list for `C/C=C(/C)C(=O)O[C@H]1c2cc(OC)c(OC)c(OC)c2-c2c(cc3c(c2O)OCO3)C[C@H](C)[C@@]1(C)O` [SCHISANWILSONIN A]?
Answer: inhibition in vivo at 0.025 mg/kg (Hepatitis B virus [2]): 0%; inhibition in vivo at 0.05 mg/kg (Hepatitis B virus [3]): 5.3%; inhibition in vivo at 0.05 mg/kg (Hepatitis B virus [5]): 14%; inhibition in vivo at 0.025 mg/kg (Hepatitis B virus [6]): 0%; inhibition at 200 ug/mL [7]: ≥ 25%; inhibition at 100 ug/mL [10]: ≥ 25%

Question: What does the source list for `COc1cc2c(c(O)c1OC)-c1c(cc(OC)c(OC)c1OC)C[C@@H](C)[C@@H](C)C2` [SCHISANHENOL]?
Answer: inhibition in vivo at 0.025 mg/kg (Hepatitis B virus [2]): 45%; inhibition in vivo at 0.025 mg/kg (Hepatitis B virus [6]): 0%; inhibition at 200 ug/mL [7]: ≥ 25%; inhibition at 100 ug/mL [10]: ≥ 25%; inhibition at 50 ug/mL [11]: ≥ 25%
